Results as given in paper PMC12165799, “Antimicrobial peptide developed with machine learning sequence optimization targets drug resistant Staphylococcus aureus in mice” (The Journal of Clinical Investigation, 2025).

What was measured:
[1] = system: S. aureus MW2 skin infection; test: Skin-abraded murine infection, established infection model, bacterial load; assay type: in vivo, mice; parameters: Bacterial load from skin specimens, established infection model / bacterial load in skin, Sup. Fig. 12: unit not given here; details: for Reduction of S. aureus MW2 vs vehicle, established infection model: single dose 24 hours after inoculation, n = 8; for bacterial load in skin, Sup. Fig. 12: mice
Method: (§1) 599 In vivo murine skin infection and treatment
(§2) 600 We used a topical skin-abraded murine infection model with minor modifications to test
(§3) 601 the in vivo efficacy of the CIT-8 peptide (25). We performed all mouse studies following the
(§4) 602 protocol approved by the Institutional Animal Care and Use Committee. In brief, we anesthetized
(§5) 603 female C57BL/6 mice (6 weeks) (Jackson Laboratory, Bar Harbor, ME, USA) with ketamine-
(§6) 604 xylazine (90 mg/kg ketamine and 10 mg/kg xylazine) via intraperitoneal injection. We shaved the
(§7) 605 dorsal side of the mice in the middle of the back (area=2 cm2). To disrupt skin integrity, we tape-
(§8) 606 stripped with Tensoplast® seven times in succession, replacing the tape each time, resulting in
(§9) 607 visibly damaged skin. We infected the damaged skin area with 1 × 10^7 CFU of S. aureus MW2
(§10) 608 (exponential phase bacteria in PBS) with an inoculum of 50 µl using a pipette tip. Ten minutes
(§11) 609 (prophylactic model) and 24 h (established model) after bacterial inoculation, we applied 30 mg
(§12) 610 of 1 and 2% (w/w) CIT-8 ointment in a white petroleum jelly base (Cat no. 19-090-843, Fisher
(§13) 611 Scientific, MA, USA) to the skin. We also included animal groups treated with only petroleum
(§14) 612 jelly or with 2% commercial mupirocin ointment as negative and positive controls, respectively.
(§15) 613 For pain management, we used the analgesic buprenorphine SR (0.05 mg/kg).
(§16) 614 After 24 h of treatment, we euthanized the animals, separated the skin from the underlying
(§17) 615 fascia and muscle tissue, and excised about 2 cm2 of skin from the infected area. We ground the
(§18) 616 skin in 1ml of PBS buffer (Gibco, MD, USA). We serially diluted 100 µl of the solution in PBS
(§19) 617 and plated it on Remel™ TSA plates (Fisher, MA, USA) to estimate viable colony counts after 18
(§20) 618 h of incubation at 37 °C. Further, we added 10 µl of EDTA-Free, protease inhibitor cocktail Set III
(§21) 619 (Millipore Sigma, MA, USA) to 500 µl of the ground skin PBS solution for cytokine estimation.
(§22) 620 The Cytokine Core, LLC (Indianapolis, IN, USA) performed the cytokine concentration analysis

TNFA, IL6, MCP1 = test: Cytokine estimation in infected murine skin (prophylactic model); assay type: in vivo, mice; parameters: TNFA in murine skin / IL6 in murine skin / MCP1 in murine skin: unit not given here; details: 2% w/w
Method: as §1, §2, §3, §4, §5, §6, §7, §8, §9, §10, §11, §12, §13, §14, §15, §16, §17, §18, §19, §20, §21, §22

## H-GLFKVIKKLLKVI-NH2 [CIT-8]
[1]; 1% ointment 24 hours after infection, animal 1
  Bacterial load from skin specimens, established infection model: 573476702
[1]; 1% ointment 24 hours after infection, animal 2
  Bacterial load from skin specimens, established infection model: 722891566
[1]; 1% ointment 24 hours after infection, animal 3
  Bacterial load from skin specimens, established infection model: 990099010
[1]; 1% ointment 24 hours after infection, animal 4
  Bacterial load from skin specimens, established infection model: 73752712
[1]; 1% ointment 24 hours after infection, animal 5
  Bacterial load from skin specimens, established infection model: 440528634
[1]; 1% ointment 24 hours after infection, animal 6
  Bacterial load from skin specimens, established infection model: 407784986
[1]; 1% ointment 24 hours after infection, animal 7
  Bacterial load from skin specimens, established infection model: 586080586
[1]; 1% ointment 24 hours after infection, animal 8
  Bacterial load from skin specimens, established infection model: 58441558
[1]; 1% w/w ointment
  Reduction of S. aureus MW2 vs vehicle, established infection model: 0.85 log
[1]; 1%, animal 1
  bacterial load in skin, Sup. Fig. 12: 3454231
[1]; 1%, animal 2
  bacterial load in skin, Sup. Fig. 12: 9594096
[1]; 1%, animal 3
  bacterial load in skin, Sup. Fig. 12: 4268293
[1]; 1%, animal 4
  bacterial load in skin, Sup. Fig. 12: 37383178
[1]; 1%, animal 5
  bacterial load in skin, Sup. Fig. 12: 4592423
[1]; 1%, animal 6
  bacterial load in skin, Sup. Fig. 12: 4992200
[1]; 1%, animal 7
  bacterial load in skin, Sup. Fig. 12: 5211726
[1]; 1%, animal 8
  bacterial load in skin, Sup. Fig. 12: 8092486
[1]; 2% ointment 24 hours after infection, animal 1
  Bacterial load from skin specimens, established infection model: 198248802
[1]; 2% ointment 24 hours after infection, animal 2
  Bacterial load from skin specimens, established infection model: 54495913
[1]; 2% ointment 24 hours after infection, animal 3
  Bacterial load from skin specimens, established infection model: 66006601
[1]; 2% ointment 24 hours after infection, animal 4
  Bacterial load from skin specimens, established infection model: 87431694
[1]; 2% ointment 24 hours after infection, animal 5
  Bacterial load from skin specimens, established infection model: 13757524
[1]; 2% ointment 24 hours after infection, animal 6
  Bacterial load from skin specimens, established infection model: 41237113
[1]; 2% ointment 24 hours after infection, animal 7
  Bacterial load from skin specimens, established infection model: 64923354
[1]; 2% ointment 24 hours after infection, animal 8
  Bacterial load from skin specimens, established infection model: 70546737
[1]; 2% w/w ointment
  Reduction of S. aureus MW2 vs vehicle, established infection model: 1.8 log
[1]; 2%, animal 1
  bacterial load in skin, Sup. Fig. 12: 3143418
[1]; 2%, animal 2
  bacterial load in skin, Sup. Fig. 12: 1148325
[1]; 2%, animal 3
  bacterial load in skin, Sup. Fig. 12: 935065
[1]; 2%, animal 4
  bacterial load in skin, Sup. Fig. 12: 898204
[1]; 2%, animal 5
  bacterial load in skin, Sup. Fig. 12: 917874
[1]; 2%, animal 6
  bacterial load in skin, Sup. Fig. 12: 1020408
[1]; 2%, animal 7
  bacterial load in skin, Sup. Fig. 12: 1787044
[1]; 2%, animal 8
  bacterial load in skin, Sup. Fig. 12: 4694836
TNFA, IL6, MCP1; animal 1
  IL6 in murine skin: 3.152
  MCP1 in murine skin: 6.488
  TNFA in murine skin: 126
TNFA, IL6, MCP1; animal 2
  IL6 in murine skin: 2.798
  MCP1 in murine skin: 3.271
  TNFA in murine skin: 153.385
TNFA, IL6, MCP1; animal 3
  IL6 in murine skin: 1.183
  MCP1 in murine skin: 2.973
  TNFA in murine skin: 114.591
TNFA, IL6, MCP1; animal 4
  IL6 in murine skin: 2.409
  MCP1 in murine skin: 4.047
  TNFA in murine skin: 182.154
TNFA, IL6, MCP1; animal 5
  IL6 in murine skin: 1.071
  MCP1 in murine skin: 1.51
  TNFA in murine skin: 103
TNFA, IL6, MCP1; animal 6
  IL6 in murine skin: 5.43
  MCP1 in murine skin: 10.445
  TNFA in murine skin: 372.2
TNFA, IL6, MCP1; n = 6
  Reduction of IL6 level in skin: 5 fold
  Reduction of MCP1 level in skin: 5 fold
  Reduction of TNFA level in skin: 2.5 fold
